Assay results as given in patent US20200062719A1, “Application of Imidazopyridine Derivatives in Regenerative Medicine” (University of Heidelberg, priority 2018, published 2020).

Assays:
promoter of Oct4 = test: ChIP-qPCR of H3K4Me3 at the promoter of Oct4 in reprogramming-resistant fibroblasts; format: cell-based, human; details: reprogramming-resistant patient fibroblasts
Source text: The importance of active tri-methylation of histone H3 lysine 4 (H3K4Me3) in promoting transcription factors binding to an ‘open’ chromatin state and thereby initiation of reprogramming is known in the art. In good agreement, the inventors found the abundance of H3K4Me3 in O4I3-treated reprogramming-resistant fibroblasts by immunostaining (FIG. 14) and immunoblotting (FIG. 5B). To directly study if O4I3 facilitated the binding of H3K4Me3 to the promoter of Oct4, a CHIP-qPCR experiment was performed.
In reprogramming-resistant HF4, the level of H3K4Me3 at the promoter of OCT4 was increased by OSKM, but was still nearly 1,000-fold lower than that in PSCs (FIG. 19A). […] However, a clear influence on H3K4 methylation was not observed in the presence of KDM5B-, KDM5C-, or KDM5D-siRNA (FIG. 19A). […] Indeed, the reprogramming efficiency is negatively correlated with the expression of KDM5A in 11 HFs (FIG. 19D). Moreover, KDM5A siRNA increased the global level of H3K4Me3 in a dose-dependent manner (FIG. 19E). Of note, the alternation in the occupation of H3K27Me3 at the promoter of OCT4 was more refractory to chemical inhibition or genetic repression of KDM5s in the inventors' experiments (FIG. 19B). […]

human fibroblasts = test: qRT-PCR of reprogramming associated genes in human fibroblasts; format: cell-based; details: human fibroblasts, O4I3 0.5 μM
Procedure: Analyzing the effects of O4I3 on human fibroblasts, the activation of reprogramming associated genes, including an about 10-fold induction of Oct4, Nanog and Lin28, and an about 100-fold increase of Sox2 and E-Cadherin mRNA levels was detected. In particular, expression of several essential genes for reprogramming is equal to those in pluripotent stem cells, such as Esrrb, FGF2 and Sall4 (FIG. 12).
(§1) Quantitative reverse-transcription real-time-PCR was performed using a Light Cycler 96 (Roche, Germany) following the manufacturer's protocol. Briefly, total RNA was isolated from cells using TRIzol (Qiagen, Germany) or NucleoSpin®RNA Plus (Macherey-Nagel, Germany). The same amount of RNA was used to reverse-transcriptional synthesize cDNA by using random primers ProtoScript® First Strand cDNA Synthesis Kit (NEB, Germany). qPCR was performed using the SYBR Green PCR master mix (qPCRBIO SyGreen Mix Lo-Rox, Nippon Genetics, Germany) and the primer pairs indicated below (MWG, Eurofins, Germany). Actin was used as an endogenous control. Data were normalized to the value of untreated cells showing the mean±SD of quadruplicates and are representative of at least three independent experiments.

hiPSCs = test: iPSC single cell expansion, viability by MTT assay; format: cell-based, human; details: versus absence of O4I3
Procedure: Since O4I3 induced sustainable expression of Oct4 and Nanog, the inventors questioned if it supports iPSC self-renewal in single cell expansion. Therefore, the viability of iPSCs, after replating Accutase®-dissociated single iPSCs, was tested in the presence or absence of O4I3. Rocki (Y-27632) was used for the first 24 h to increase iPSCs survival. A nearly 300% higher viability in cells treated with O4I3 (1 nM) was observed. Using 50 nM of O4I3 even 400% increase was observed (FIG. 2A). FACS analysis confirmed homologous expression of iPSCs markers, Tra-1-81 and Oct4, for at least 30 passages (FIG. 2B).
iPSC single cell expansion was performed according to a well-established protocol known in the art (Watanabe et al, Nat Biotechnol, 2007, 25(6), 681-6). Briefly, iPSCs were dissociated with Accutase® as single cell suspension and re-seeded in a Geltrex-coated 96-well plate in the presence of Rock inhibitor for the first 24 h in combination with/without O4I3. Cell viability was performed in MTT assay as disclosed elsewhere (Cheng et al, Mol Oncol. 2016 June; 10(6):806-24).

iPSCs = test: qRT-PCR gene expression in iPSCs; format: cell-based, human; details: 50 nM, 24 h
Procedure: A) O4I3 promoted the viability of hiPSCs in single cell expansion. B) Homogeneous expression of […] and Oct4 up to passage (p) 30 in hiPSCs treated with 50 nM O4I3 analyzed by FACS C) Relative fold changes to non-treatment in hiPSCs treated with O4I3 (50 nM) for 24 h analyzed by qRT-PCR. D) Gene expression profiling analysis of functional annotation enrichment for categories related to pluripotency, development and homeostasis in O4I3-treated iPSCs for 24 h. Data are represented as mean±SD from at least 3 independent experiments ***: p<0.001; **: p<0.01; *: p<0.05.
as §1

Structure (SMILES): Cc1ccc(-c2cn3cc(C)ccc3n2)cc1 [O4I3, 6-methyl-2-(p-tolyl)imidazo[1,2-a]pyridine]
- enrichment of H3K4Me3 at the promoter of Oct4 (promoter of Oct4): increased enrichment
- increase of E-Cadherin mRNA levels (human fibroblasts): about 100 fold
- increase of Sox2 mRNA levels (human fibroblasts): about 100 fold
- induction of Lin28 mRNA (human fibroblasts): about 10 fold
- induction of Nanog mRNA (human fibroblasts): about 10 fold
- induction of Oct4 mRNA (human fibroblasts): about 10 fold
- higher viability of iPSCs in single cell expansion (hiPSCs; 1 nM): ~300%
- higher viability of iPSCs in single cell expansion (hiPSCs; 50 nM): 400%
- expression of pluripotency-associated genes (iPSCs): stabilized or slightly increased
